Results from patent US12343321B1, “Method for ameliorating or avoiding the adverse effects of exogenous gonadotropins on reproductive performance” (CHINA AGRICULTURAL UNIVERSITY, priority 2024, dated 2025).
“Also recorded” adds a separate entry of the source. Marks after values point to notes of the source that are not given here.

Columns and labels:
[1] = test system: ICR female mice treated with eCG/hCG; test: Live birth after embryo transfer in gonadotropin-treated mice; type: in vivo; details: for live births compared with control group (exogenous gonadotropin only): 12 embryos transferred on day 4, counted on day of delivery, drugs 200 mg/kg BW total i.p. daily
Procedure: Superovulation stimulation and BGJ398 group (eCG/hCG+BGJ398): Female 8-week-old ICR mice were taken as the research object and injected with 10 IU eCG and PMSG to induce superovulation, respectively. On day 3 of pregnancy, the mice were injected with 5 μL of FGF receptor inhibitor containing 100 μM BGJ398 inhibitor through the uterine horn. Embryo transfer was then performed on day 4 after the vaginal plug was observed.
Superovulation stimulation and VA single administration group (eCG/hCG+VA): A female 8-week-old ICR mouse was taken as the research object. On the basis of the treatment of the superovulation stimulation group (eCG/hCG), each mouse was intraperitoneally injected with VA at a dose of 200 mg/kg BW daily 5 days prior to the injection of eCG/hCG. Embryo transfer was then performed on day 4 after the vaginal plug was observed. The injection was continued until day 10 of pregnancy.
Superovulation stimulation and NAC and VA combined administration group (eCG/hCG+NAC+VA): A female 8-week-old ICR mouse was taken as the research object. On the basis of the treatment of the superovulation stimulation group (eCG/hCG), each mouse was intraperitoneally injected with a mixture of NAC at a dose of 100 mg/kg BW and VA at a dose of 100 mg/kg BW daily 5 days prior to the injection of eCG. Embryo transfer was then performed on day 4 after the vaginal plug was observed. The injection was continued until day 10 of pregnancy.
Embryo transfer was separately performed on the mice in the CON group, eCG/hCG group, eCG/hCG+BGJ398 group, eCG/hCG+NAC group, eCG/hCG+VA group, and eCG/hCG+NAC+VA group on day 4 of pregnancy, and the mice were then placed in the animal house for normal feeding. On the day of delivery, the number born alive index was counted. […]

pERK = test: Molecular detection of pERK in mouse endometrium after eCG/hCG treatment; type: in vivo; details: day 4 after vaginal plug, NAC 200 mg/kg BW i.p. daily, BGJ398 100 μM, 5 μL via uterine horn, or NAC 100 + VA 100 mg/kg BW
Excerpt: (§1) 2.2 Molecular Regulation Effect of N-Acetylcysteine in Combination with Vitamin A on Alleviating Uterine Receptivity Decrease Induced by Gonadotropin Treatments
(§2) In the animal experiment, ICR female mice (SPF grade, 8 weeks old, 28-30 g) were selected and randomized into groups of 10-18, including normal control group (CON), superovulation stimulation group (eCG/hCG), superovulation stimulation and BGJ398 group (eCG/hCG+BGJ398), superovulation stimulation and NAC single administration group (eCG/hCG+NAC), superovulation stimulation and VA single administration group (eCG/hCG+VA), superovulation stimulation and NAC and VA combined administration group (eCG/hCG+NAC+VA). The temperature of the breeding environment was 22° C., 12-h light/dark cycle was performed, and the mice were provided with free access to water and food. After the animals were purchased, they were acclimated for 5-7 days.
(§3) Control group (CON): A female 8-week-old ICR mouse was taken as the research object, subjected to natural estrus, mated with a vasoligated male mouse, and was taken as the control group. The uterus of the mouse was then separated on day 4 after the vaginal plug was observed, namely, when the uterine receptivity was established, and the detection of a plurality of signal molecules was carried out. […]

[2] = test system: ICR female mice treated with eCG/hCG; test: Embryo implantation sites after embryo transfer in gonadotropin-treated mice; type: in vivo, mouse; details: for number of implantation sites compared with control group (exogenous gonadotropin only): 12 embryos transferred on day 4, counted on day 5 of pregnancy, drugs 200 mg/kg BW total i.p. daily, BGJ398 100 μM via uterine horn; for effect on implantation and live birth, alone or in synergy with NAC/VA: 200 mg/kg BW alone, or 100 + 100 mg/kg BW with NAC/VA
Excerpt: as §2
Superovulation stimulation and BGJ398 group (eCG/hCG+BGJ398): Female 8-week-old ICR mice were taken as the research object and injected with 10 IU eCG and […] to induce superovulation, respectively. On day 3 of pregnancy, the mice were injected with 5 μL of FGF receptor inhibitor containing 100 μM BGJ398 inhibitor through the uterine horn. Embryo transfer was then performed on day 4 after the vaginal plug was observed.
(§4) Superovulation stimulation and NAC single administration group (eCG/hCG+NAC): A female 8-week-old ICR mouse was taken as the research object. On the basis of the treatment of the superovulation stimulation group (eCG/hCG), each mouse was intraperitoneally injected with NAC at a dose of 200 mg/kg BW daily 5 days prior to the injection of eCG. Embryo transfer was then performed on day 4 after the vaginal plug was observed. The injection was continued until day 10 of pregnancy.
as §4, with “VA” for “NAC”, “(eCG/hCG+VA):” for “(eCG/hCG+NAC):”, “eCG/hCG.” for “eCG.”
as §4, with “and VA combined” for “single”, “(eCG/hCG+NAC+VA):” for “(eCG/hCG+NAC):”, “with a mixture of” for “with”, “100 mg/kg BW and VA at a dose of 100” for “200”
The mice in the CON group, eCG/hCG group, eCG/hCG+BGJ398 group, eCG/hCG+NAC group, eCG/hCG+VA group, and eCG/hCG+NAC+VA group were separately in the same cage and mated with a vasoligated male mouse. The vaginal plug was checked at about 8 am in the next morning. The pseudopregnant female mouse whose vaginal plug was observed was ready for transfer. The day when the vaginal plug was observed was taken as day 1, and day 4 was the date of blastocyst transfer. […]
Embryo transfer was separately performed on the mice in the CON group, eCG/hCG group, eCG/hCG+BGJ398 group, eCG/hCG+NAC group, eCG/hCG+VA group, and eCG/hCG+NAC+VA group on day 4 of pregnancy; embryo implantation sites were counted by orbital injection of Chicago blue on day 5 of pregnancy. […]

Gilts = test: Reproductive performance of gilts in batch farrowing with FTAI (pregnancy rate, farrowing rate); type: in vivo, pig; details: for Estrus detection rate (%) / Farrowing rate (%) / Pregnancy Rate (%): batch farrowing with FTAI (eCG/GnRH), drugs in feed, 200 mg/kg BW total daily; for female pig farrowing rate compared with batch farrowing with FTAI (control group) / female pig pregnancy rate compared with batch farrowing with FTAI (control group): eCG/GnRH, result in words
Excerpt: Gilts with the weight of 120-140 kg and the age of 200-250 days were selected for the experiment, which were divided into the batch farrowing with FTAI (CON) group, batch farrowing supplemented with NAC (NAC) group, batch farrowing supplemented with VA (VA) group, batch farrowing with combined administration of NAC and VA (NAC+VA 1:1) group, batch farrowing with combined administration of NAC and VA (NAC+VA […]) group, and batch farrowing with combined administration of NAC and VA (NAC+VA 9:1) group. Each group had 48-55 gilts.
The technical process of batch farrowing of the gilts in the CON group (namely the batch farrowing with FTAI scheme) was as follows: 1) estrus synchronization treatment: the gilt orally taken altrenogest for 18 days; 2) after an interval of 42 h after the estrus synchronization treatment, exogenous gonadotropin eCG was injected to induce follicular development synchronization; 3) after an interval of 80 h after eCG injection, an ovulatio induction drugs (GnRH) was injected. After an interval of 24 h after the injection, a first mating was carried out, and then after an interval of 16 h, a second mating was carried out. Pregnancy examination was then performed and the gilts were fed normally until delivery.
On the basis of the technical process of batch farrowing of the gilts in the CON group, in the NAC group, VA group, and NAC+VA group, NAC at a dose of 200 mg/kg BW, VA at a dose of 200 mg/kg BW, combined addition of NAC (100 mg/kg BW) and VA (100 mg/kg BW), combined addition of NAC (20 mg/kg BW) and VA (180 mg/kg BW), and combined addition of NAC (180 mg/kg BW) and VA (20 mg/kg BW) were separately added into the feed daily 14 days prior to the eCG injection until the end of first pregnancy examination (day 30-32 of pregnancy). The gilts were then fed normally until delivery.
The pregnancy rate of the female pigs was counted through pregnancy examination; the farrowing rate of the female pigs was counted during delivery. The pregnancy rate and the farrowing rate of female pigs from different treatment groups were calculated as follows: Female pig pregnancy rate=pregnant female pig count/mated female pig count×100% Female pig farrowing rate=delivery female pig count/mated female pig count×100%

ERα = test: Molecular detection of ERα in mouse endometrium after eCG/hCG treatment; type: in vivo; details: day 4 after vaginal plug, VA 200 mg/kg BW i.p. daily alone, or NAC 100 + VA 100 mg/kg BW
Excerpt: as §1, §2, §3

| SMILES | toxicity to fetal development after implantation ([1]; BGJ398 100 μM, 5 μL via uterine horn on day 3) | excessive phosphorylation of pERK (exogenous gonadotropin-induced pERK overexpression) (pERK) | number of implantation sites compared with control group (exogenous gonadotropin only) [2] | effect on implantation and live birth, alone or in synergy with NAC/VA [2] | live births compared with control group (exogenous gonadotropin only) [1] | Estrus detection rate (%) (Gilts) | Farrowing rate (%) (Gilts) | Pregnancy Rate (%) (Gilts) | female pig farrowing rate compared with batch farrowing with FTAI (control group) (Gilts) | female pig pregnancy rate compared with batch farrowing with FTAI (control group) (Gilts) | expression of ERα (exogenous gonadotropin-induced ERα overexpression) (ERα) |
| --- | --- | --- | --- | --- | --- | --- | --- | --- | --- | --- | --- |
| CCN1CCN(c2ccc(Nc3cc(N(C)C(=O)Nc4c(Cl)c(OC)cc(OC)c4Cl)ncn3)cc2)CC1 [BGJ398] | highly toxic; also recorded: negatively affect fetal development; also recorded: fetus regressed | significantly inhibit | significantly higher; also recorded: significantly increase | – | – | – | – | – | – | – | – |
| COc1ccc2[nH]cc(CCNC(C)=O)c2c1 [MT, melatonin] | – | – | – | do not work well | – | – | – | – | – | – | – |
| CC(=O)N[C@@H](CS)C(=O)O [NAC, N-acetyl-L-cysteine] | – | significantly inhibit | increased to some extent | – | increased to some extent | 88.89% | 81.48^b % | 85.19^b % | significantly improve | significantly improve | – |
| CC1=C(/C=C/C(C)=C/C=C/C(C)=C/CO)C(C)(C)CCC1 [VA, vitamin A] | – | – | increased to some extent | – | increased to some extent | 93.75% | 83.33^b % | 89.58^b % | significantly improve | significantly improve | significantly inhibits |
| O=C1O[C@H]([C@@H](O)CO)C(O)=C1O [VC, vitamin C] | – | – | – | do not work well | – | – | – | – | – | – | – |
